# Laboratory results taken from patent US20250074869A1, “AMINO-COMBRETASTATIN DERIVATIVE AND USE THEREOF” (priority 2020, published 2025).
# What was measured:
# [1] = test system: Male ICR mice; test: Acute toxicity study in animals (oral LD50); settings: mouse, in vivo
# Source text: Male ICR mice weighed 23±2 g, clean grade, were selected. The route of administration was intragastric (ig) administration, which is consistent with the intended oral route for clinical use.
# Mice were randomly divided into 8 groups by weight: the blank control group, Example 1 group, Example 5 group, Example 11 group, Example 12 group, Example 13 group, Example 14 group and control group. Among these, the control group received amino-combretastatin serinamide hydrochloride as the control (hereinafter referred to as control).
# Preparation of the compounds used in the example groups: The compounds obtained in Example 1, Example 3. Example 4. Example 5. Example 6. Example 7. Example 8. Example 9. Example 10. Example 11. Example 12, Example 13 and Example 14 were prepared into hydrochloride salts according to the method disclosed in Example 2.
# Pre-treatment: […] were deprived of food but not water for 12 h before the study. and randomized into groups of 10 by body weight. The treatment groups were intragastrically administered once at 0.25 mL/10 g body weight, and the water control group received an equivalent amount of distilled water through intragastric administration. The LD100 value (the amount for 100% death), LD0 (the amount for 0 death) and the corresponding range r value between the dose groups were calculated, and LD50 was determined.
# Study procedures: 160 mice were randomized into 8 groups of 20 mice by body weight. After deprivation of food but not water for 12 h before the study, each group was intragastrically given the compound once at 0.3 mL/10 g body weight. Since no death was observed after 12 h, the second dose was given. The control group received equivalent volumes of water. The daily dose of each group was calculated; the control group received equal volumes of water and was subjected to an acute toxicity study for observation and the body weight of the mice was recorded daily for 14 days.
# [2] = test system: human liver cancer cells Bel-7402; test: Efficacy study in nude mouse with xenograft tumor, Bel-7402; type: in vivo; settings: BALB/cA-nude mice, subcutaneous xenograft, 50 mg/kg intragastric once daily for 21 days, dosed as hydrochloride
# Description: (§1) BALB/cA-nude mice aged 6 to 7 weeks were purchased from Shanghai Slac Laboratory Animal Co., Ltd. The nude mice were subcutaneously grafted with human liver cancer cells Bel-7402, colon cancer cells HT-29, gastric cancer cells SGC-7901 or non-small cell lung cancer cells A549. After the tumor grew to 100 to 250 mm^3, the animals were randomized (d0). The tumor volumes and body weights were measured twice or thrice a week, and the data were recorded. Tumor volume (V) was calculated as follows:
# (§2) [formula] • wherein a and b represent length and width, respectively; T and C are the tumor volumes at the end of study; T0 and C0 are the tumor volumes at the start of study.
# (§3) All samples were diluted to the desired concentration with 50% PEG400 in distilled water. The regimen was once daily for 21 days at 50 mg/kg mouse body weight through intragastric administration, and 50 mg/kg for the control. The compounds obtained in Examples 1, 3, 4, 5, 6, 7, 8, 9, 10, 11, 12, 13 and 14 and the control were prepared into corresponding hydrochloride as the dosing compounds according to the method disclosed in Example 2 to investigate their efficacy on human liver cancer cell Bel-7402, colon cancer cell HT-29, gastric cancer cell SGC-7901 or non-small cell lung cancer cell A549 xenograft tumors in nude mice and to compare the compounds with the control (prepared as in Example 16).
# [3] = test system: colon cancer cells HT-29; test: Efficacy study in nude mouse with xenograft tumor, HT-29; type: in vivo, human; settings: BALB/cA-nude mice, subcutaneous xenograft, 50 mg/kg intragastric once daily for 21 days, dosed as hydrochloride
# Description: as §1, §2, §3
# [4] = test system: non-small cell lung cancer cells A549; test: Efficacy study in nude mouse with xenograft tumor, A549; type: in vivo, human; settings: BALB/cA-nude mice, subcutaneous xenograft, 50 mg/kg intragastric once daily for 21 days, dosed as hydrochloride
# Description: as §1, §2, §3
# [5] = test system: gastric cancer cells SGC-7901; test: Efficacy study in nude mouse with xenograft tumor, SGC-7901; type: in vivo, human; settings: BALB/cA-nude mice, subcutaneous xenograft, 50 mg/kg intragastric once daily for 21 days, dosed as hydrochloride
# Description: as §1, §2, §3
substance,measurement,setting,value
"amino-combretastatin serinamide hydrochloride [Control, reference compound]",LD50,[1],200 mg/kg
same,% tumor inhibition (D21) Bel-7402,[2],39%
same,% tumor inhibition (D21) HT-29,[3],42%
same,% tumor inhibition (D21) A549,[4],30%
same,% tumor inhibition (D21) SGC-7901,[5],34%
